Assay results from patent publication US6265433A, “LTA4 hydrolase inhibitors” (G. D. Searle & Company, priority 1999, dated 2001).

Tests used:
[1] = tested on: LTB4 production in calcium ionophore stimulated human blood; assay: Inhibition of calcium ionophore-induced LTB4 production in human blood (human whole blood assay); type: cell-based; conditions: human blood diluted 1:4; 15 minutes preincubation at 37° C.; calcium ionophore 20 mcg/ml, 10 minutes
From the text: (§1) One or more of three different assays, (1) an in vitro LTA hydrolase enzyme assay, (2) a human whole blood assay utilizing calcium ionophore stimulation, and (3) a murine ex vivo assay utilizing calcium ionophore stimulation were employed to determine the level of LTA hydrolase inhibitor activity.
LTB4 and Thromboxane Production by Calcium Ionophore Stimulated Human Blood for LTB4 Hydrolase Inhibitor Activity
One or more concentrations of the leukotriene A4 hydrolase inhibitor compounds being tested were prepared (diluted in DMSO) and 2 μl added and gently mixed with the diluted whole blood. After incubating for 15 minutes at 37° C. in a humidified incubator, calcium ionophore […] (Sigma Chemical Co., St. Louis, Mo.) was added to a final concentration of 20 mcg/ml and the incubation continued under the same conditions for an additional 10 minutes to allow LTB4 formation. The reaction was terminated by centrifugation (833 g, 10 minutes at 4° C.) and supernatant were analyzed for LTB4 and thromboxane by commercially available enzyme-linked immunoassays (Caymen Chemical Co., Ann Arbor, Mich.) according to the manufacturer's instructions. The IC50 of each test compound was determined from the amount of inhibition of LTB4 production as compared to an essentially identical assay in which no inhibitor compound was present.

[2] = tested on: LTB4 production in calcium ionophore stimulated mouse blood; assay: Murine ex vivo LTB4 inhibition, calcium ionophore stimulated mouse blood after oral gavage; type: in vivo, mouse (adult male outbred mice); conditions: 1 h, blood collected 60 minutes after administration, ionophore A23187 20 mcg/ml, read-out: Murine Ex Vivo LTB4 Inhibition, % I LTB4 at 1 hour after administration of 10 mg/kg
From the text: as §1
Ex Vivo LTB4 and Thromboxane Production by Calcium lonophore Stimulated Mouse Blood for […] Inhibitor Activity
Leukotriene A4 hydrolase inhibitor compounds of the present invention were diluted to a predetermined concentration in phosphate buffered saline containing 2% DMSO and 1% Tween 80. The compounds were administered by oral gavage to adult male outbred mice weighing approximately 20-30 gm at a dose of 10 mg/kg body weight. (Compounds given at a dose of 50 mg/kg body weight are designated in following Table by the symbol, *) Sixty (60) minutes after administration of an LTA4 inhibitor compound of the invention, blood was collected (into heparin-containing tubes) from the retroorbital sinus. […] The mixture was incubated for 10 minutes at 37° C. in a humidified incubator. The reaction was terminated by centrifugation (833 g. 10 minutes at 4° C.). Supernatant were analyzed for LTB4 and thromboxane by commercially available enzyme-linked immunoassays [Caymen Chemical Co., Ann Arbor, Mich.] in accordance with the manufacturer's instructions. The percent inhibition was determined by comparison to animals treated identically except that the solution administered by oral gavage was devoid of inhibitor compound.

[3] = biological target: T1, Recombinant Human LTA4 Hydrolase (Homo sapiens, UniProt P09960); assay: Recombinant Human LTA Hydrolase Assay (in vitro LTA hydrolase enzyme assay); type: biochemical; conditions: 250 ng rhLTA4 hydrolase; 10 minutes preincubation and 10 minutes reaction at room temperature; pH 7.4
T1 construct: made in house; host or cells: Spodoptera frugiperda Sf-9 cells (baculovirus)
T1 sequence (P09960 1-611): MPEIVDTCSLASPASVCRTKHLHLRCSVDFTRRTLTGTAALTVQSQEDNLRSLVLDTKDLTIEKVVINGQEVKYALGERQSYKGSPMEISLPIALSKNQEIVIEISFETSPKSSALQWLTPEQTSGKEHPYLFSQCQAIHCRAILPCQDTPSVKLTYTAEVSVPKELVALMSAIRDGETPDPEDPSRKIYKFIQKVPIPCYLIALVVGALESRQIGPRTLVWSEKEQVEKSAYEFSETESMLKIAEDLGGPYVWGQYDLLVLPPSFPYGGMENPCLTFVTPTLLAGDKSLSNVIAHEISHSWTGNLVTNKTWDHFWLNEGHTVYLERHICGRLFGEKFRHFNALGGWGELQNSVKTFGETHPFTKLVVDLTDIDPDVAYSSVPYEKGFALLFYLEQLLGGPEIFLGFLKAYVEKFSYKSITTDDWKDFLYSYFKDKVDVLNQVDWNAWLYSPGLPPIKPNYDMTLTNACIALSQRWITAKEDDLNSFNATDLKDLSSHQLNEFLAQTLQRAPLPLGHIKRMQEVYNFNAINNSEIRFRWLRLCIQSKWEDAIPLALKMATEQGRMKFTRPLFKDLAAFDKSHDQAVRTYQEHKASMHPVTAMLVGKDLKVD
Description: as §1
Recombinant Human LTA Hydrolase Assay for LTA Hydrolase Inhibitor Activity
Compounds of the present invention were tested for LTA hydrolase inhibitor activity against recombinant human LTA hydrolase (rhLTAH). […] Briefly, LTA hydrolase encoding DNA was amplified by polymerase chain reaction using a pair of oligonucleotide primers based on the nucleotide sequence from the 5'-end, and the complement of the 3'-end, of the coding region of the LTA hydrolase gene, the nucleotide sequence of which gene is known. […] A λgt11 human placental cDNA library (Clonetech, Palo Alto, Calif.) provided the nucleic acid template.
One or more predetermined amounts of a compound of the invention were incubated in assay buffer (0.1 M potassium phosphate, 5 mg/ml fatty acid free BSA, 10% DMSO, Ph 7.4) for 10 minutes at room temperature with 250 ng of recombinant hLTA4 H to allow binding, if any, between the enzyme and inhibitor. The stock enzyme solution was 1 mg/m. LTA4 hydrolase, 50 Mm Tris, Ph 8.0, 150 Mm NaCl, 2.5 Mm beta-mercaptoethanol, 50% glycerol. The specific activity of the enzyme was about 650 Nmoles/min/mg. LTA4 (i.e., substrate) was prepared from the methyl ester of LTA4 (Biomol, Inc., Plymouth Meeting, Pa.) by treating the methyl ester with 30 molar equivalents of LiOH at room temperature for 18 hours. The LTA4 substrate in its free acid form was kept frozen at -80° C. until needed. LTA4 (free acid) was thawed and diluted in assay buffer (minus DMSO) to a concentration of 350 ng/ml and 25 μl (8ng) of LTA4 substrate was added to the reaction mixture (total volume of reaction mixture=200 μl at time zero. Each reaction was carried out at room temperature for 10 minutes. The reaction was stopped by diluting 25 μl of the reaction mixture with 500 μl of the assay buffer without DMSO. […] was quantified in the diluted sample by a commercially available enzyme-linked immunoassay [Caymen Chemical Col. Ann Arbor, Mich.] using the method recommended in the manufacturer's instructions and compared to the amount of […] produced in a negative control (i.e., essentially identical conditions except without addition of an inhibitor compound). The IC50 was routinely calculated from the data produced.

[4] = tested on: LTA4 hydrolase; conditions: background statement; cited from earlier work

| SMILES | IC50 [1] [nM] | inhibition at 10 mg/kg [2] [%] | IC50 [3] [nM] | LTA4 hydrolase inhibitory activity [4] |
| --- | --- | --- | --- | --- |
| c1coc(-c2ccc(Oc3ccc(OCCN4CCCC4)cc3)cc2)n1 [Example 7] | 550 | 93 |  |  |
| COC(=O)CCN(C)CCCOc1ccc(Oc2ccc(-c3ccccc3)cc2)cc1 [Example 13] | 790 | 63 | 550 |  |
| CN(CCCOc1ccc(Oc2ccc(-c3ccccc3)cc2)cc1)CCC(=O)O [Example 14] | 190 | 78 |  |  |
| C[C@H](CS)C(=O)N1CCC[C@H]1C(=O)O [captopril] |  |  |  | exhibit LTA4 hydrolase inhibitory activity |
| CN(CCCOc1ccc(Oc2ccc(-c3ncco3)cc2)cc1)CCC(=O)O [Example 18] | 190 | 94 | 27 |  |
| CC(C)C[C@H](NC(=O)[C@@H](O)[C@H](N)Cc1ccccc1)C(=O)O [bestatin] |  |  |  | exhibit LTA4 hydrolase inhibitory activity |
| c1cc(Oc2ccc(C3=NCCO3)cc2)ccc1OCCN1CCCC1 [Example 10] | 550 | 83 | 590 |  |
| O=C(O)C1CCN(CCOc2ccc(Oc3ccc(-c4ccccc4)cc3)cc2)CC1 [Example 12] | 220 | 87 |  |  |
| CN(CCCOc1ccc(Oc2ccc(-c3nccs3)cc2)cc1)CCC(=O)O [Example 17] | 72 | 87 | 950 |  |
| c1ccc(-c2ccc(Oc3ccc(OCCN4CCCC4)cc3)cc2)cc1 [Example 8] | 140 | 57 | 6.6 |  |
| CCOC(=O)C1CCN(CCOc2ccc(Oc3ccc(-c4ccccc4)cc3)cc2)CC1 [Example 11] | 720 | 90 | 340 |  |
| CCN(CCCOc1ccc(Oc2ccc(-c3ncco3)cc2)cc1)CCC(=O)O [Example 19] | 240 | 93 | 340 |  |
